In ChEMBL document CHEMBL1201862, “PubChem BioAssay data set” (2004):
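Tested at 5 concentrations; 48 h exposure; 96-well plates; endpoints linearly interpolated, else capped at highest concentration. Abbreviation: GI50, concentration required for 50% inhibition of growth.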 Active and inactive are the calls of the source. No stated cut-off is given here; in the data, active = GI50 up to about 1.1 µM and inactive = higher.

Experiments:
Assay in all cases: DTP human tumour cell line panel, 48 h
SNB-19 = test system: SNB-19
T47D = test system: T47D
OVCAR-3 = test system: OVCAR-3
CCRF-CEM = test system: CCRF-CEM
IGROV-1 = test system: IGROV-1
786-0 = test system: 786-0
Hs-578T = test system: Hs-578T
UACC-62 = test system: UACC-62
SW-620 = test system: SW-620
SF-295 = test system: SF-295
CAKI-1 = test system: CAKI-1
MDA-MB-435 = test system: MDA-MB-435
BT-549 = test system: BT-549
RPMI-8226 = test system: RPMI-8226
NCI-H23 = test system: NCI-H23
Malme-3M = test system: Malme-3M
COLO 205 = test system: COLO 205
TK-10 = test system: TK-10
MCF7 = test system: MCF7
SN12C = test system: SN12C
NCI/ADR-RES = test system: NCI/ADR-RES
OVCAR-8 = test system: OVCAR-8
SK-MEL-2 = test system: SK-MEL-2
HL-60 = test system: HL-60
HCT-15 = test system: HCT-15
NCI-H226 = test system: NCI-H226
K562 = test system: K562
M14 = test system: M14
KM12 = test system: KM12
SF-268 = test system: SF-268
MDA-MB-231 = test system: MDA-MB-231
SF-539 = test system: SF-539
EKVX = test system: EKVX
HT-29 = test system: HT-29
HOP-62 = test system: HOP-62
A549 = test system: A549
HOP-92 = test system: HOP-92
HCC 2998 = test system: HCC 2998
RXF 393 = test system: RXF 393
SK-OV-3 = test system: SK-OV-3
SK-MEL-28 = test system: SK-MEL-28
UACC-257 = test system: UACC-257
NCI-H522 = test system: NCI-H522
U-251 = test system: U-251
OVCAR-4 = test system: OVCAR-4
PC-3 = test system: PC-3
HCT-116 = test system: HCT-116
OVCAR-5 = test system: OVCAR-5
NCI-H460 = test system: NCI-H460
SK-MEL-5 = test system: SK-MEL-5
UO-31 = test system: UO-31
A498 = test system: A498
SNB-75 = test system: SNB-75
MOLT-4 = test system: MOLT-4
DU-145 = test system: DU-145
ACHN = test system: ACHN
SR = test system: SR
LOX IMVI = test system: LOX IMVI
MDA-N = test system: MDA-N

Measured: GI50

CCC(=O)Oc1c2ccsc2c(OC(=O)CC)c2ccsc12
inactive: T47D 1.56 µM | IGROV-1 1.95 µM | 786-0 2.13 µM | CAKI-1 2.42 µM | COLO 205 5.51 µM | TK-10 2.25 µM | MCF7 1.45 µM | NCI-H226 2.06 µM | KM12 1.8 µM | HT-29 2.41 µM | A549 2.05 µM | HOP-92 1.42 µM | HCC 2998 1.93 µM | SK-OV-3 6.62 µM | OVCAR-5 1.88 µM | NCI-H460 1.89 µM | A498 3.1 µM
active: SNB-19 0.54 µM | OVCAR-3 0.351 µM | CCRF-CEM 0.478 µM | Hs-578T 0.372 µM | UACC-62 0.217 µM | SW-620 0.471 µM | SF-295 0.254 µM | MDA-MB-435 0.0604 µM | BT-549 0.174 µM | RPMI-8226 0.452 µM | NCI-H23 0.182 µM | Malme-3M 0.039 µM | SN12C 0.353 µM | NCI/ADR-RES 0.279 µM | OVCAR-8 0.366 µM | SK-MEL-2 0.344 µM | HL-60 0.201 µM | K562 0.461 µM | M14 0.161 µM | SF-268 0.518 µM | MDA-MB-231 0.232 µM | SF-539 0.208 µM | EKVX 0.871 µM | HOP-62 0.849 µM | RXF 393 1 µM | SK-MEL-28 0.178 µM | UACC-257 0.171 µM | NCI-H522 0.474 µM | U-251 0.389 µM | OVCAR-4 0.948 µM | PC-3 0.339 µM | HCT-116 0.332 µM | SK-MEL-5 0.0753 µM | UO-31 0.51 µM | SNB-75 0.184 µM | MOLT-4 0.75 µM | DU-145 0.262 µM | ACHN 0.419 µM | SR 0.297 µM | LOX IMVI 0.0661 µM | MDA-N 0.0555 µM
0.318 µM: HCT-15

COC(=O)/C=C1\CCCN1CCc1cc2c(cc1CC#N)OCO2
inactive: SNB-19 60 µM | T47D 38.7 µM | OVCAR-3 22.6 µM | CCRF-CEM 42.5 µM | IGROV-1 > 100 µM | 786-0 52.7 µM | Hs-578T > 100 µM | UACC-62 31.4 µM | SW-620 49.7 µM | SF-295 38.5 µM | CAKI-1 > 100 µM | MDA-MB-435 17.3 µM | BT-549 52.6 µM | RPMI-8226 37 µM | NCI-H23 47.2 µM | Malme-3M > 100 µM | COLO 205 35.2 µM | TK-10 > 100 µM | MCF7 32.9 µM | SN12C 50 µM | NCI/ADR-RES 69.8 µM | OVCAR-8 > 100 µM | SK-MEL-2 38.4 µM | HL-60 40.7 µM | NCI-H226 48.6 µM | K562 49.4 µM | M14 71.1 µM | KM12 30.7 µM | SF-268 > 100 µM | MDA-MB-231 47.9 µM | SF-539 46.8 µM | EKVX 58.9 µM | HT-29 32.2 µM | HOP-62 52.4 µM | A549 > 100 µM | HOP-92 > 100 µM | HCC 2998 28.1 µM | RXF 393 31.7 µM | SK-OV-3 34.9 µM | SK-MEL-28 84.1 µM | UACC-257 59.4 µM | NCI-H522 > 100 µM | U-251 39.7 µM | OVCAR-4 51.3 µM | PC-3 > 100 µM | HCT-116 41.2 µM | OVCAR-5 > 100 µM | NCI-H460 36 µM | SK-MEL-5 25.6 µM | UO-31 23.8 µM | A498 32.7 µM | SNB-75 25.1 µM | MOLT-4 34.4 µM | DU-145 80.4 µM | ACHN > 100 µM | SR 16.5 µM | LOX IMVI > 100 µM | MDA-N 18.3 µM
43.2 µM: HCT-15

C=CC(=O)N1C/C(=C\c2ccc(F)cc2)C(=O)/C(=C/c2ccc(F)cc2)C1
active: SNB-19 0.944 µM | OVCAR-3 0.36 µM | CCRF-CEM 0.0883 µM | IGROV-1 0.437 µM | 786-0 0.222 µM | Hs-578T 0.235 µM | UACC-62 0.142 µM | SW-620 0.162 µM | SF-295 0.44 µM | CAKI-1 0.475 µM | MDA-MB-435 0.299 µM | BT-549 0.336 µM | RPMI-8226 0.0318 µM | Malme-3M 0.735 µM | COLO 205 0.391 µM | TK-10 1 µM | MCF7 0.168 µM | SN12C 0.454 µM | NCI/ADR-RES 0.365 µM | OVCAR-8 0.28 µM | SK-MEL-2 0.843 µM | HL-60 0.728 µM | NCI-H226 0.352 µM | K562 0.185 µM | M14 0.328 µM | KM12 0.193 µM | SF-268 0.206 µM | MDA-MB-231 0.461 µM | SF-539 0.214 µM | EKVX 0.887 µM | HT-29 0.071 µM | HOP-62 0.516 µM | A549 0.979 µM | HCC 2998 0.267 µM | RXF 393 0.185 µM | SK-OV-3 0.711 µM | SK-MEL-28 0.634 µM | NCI-H522 0.476 µM | U-251 0.188 µM | OVCAR-4 0.339 µM | PC-3 0.215 µM | HCT-116 0.0557 µM | OVCAR-5 0.622 µM | NCI-H460 0.593 µM | SK-MEL-5 0.811 µM | UO-31 0.849 µM | A498 0.568 µM | SNB-75 0.35 µM | MOLT-4 0.207 µM | ACHN 0.259 µM | SR 0.0491 µM | LOX IMVI 0.0925 µM | MDA-N 0.157 µM
0.166 µM: HCT-15
inactive: T47D 4.57 µM | NCI-H23 1.27 µM | HOP-92 3.03 µM | UACC-257 1.19 µM | DU-145 1.67 µM
